Assay: Tissue distribution by quantitative whole-body autoradiography (QWBA)
Assay type: in vivo, male Sprague Dawley and Long-Evans rats
Settings: for AUCall Ratio (PO/IV) / Cmax Ratio (PO/IV): Group 7 vs Group 4
Description: The study utilized 4 groups of male SD rats (albino), and 3 groups of male LE rats (pigmented); a total of 39 rats. All animals were obtained from Hilltop Lab Animals, Inc. (Scottdale, Pa.). […] Rats in Group 5 were administered a single 2-h IV infusion of [^14C]brincidofovir at a target dose of 2 mg/kg. […] Three dosing formulations (one for high dose IV, one for low dose IV, and one for PO dose) were prepared at QPS on the day of dosing. The IV formulation for Groups 1, 2, 3, and 4 contained a vehicle of 10 mM sodium phosphate buffer in 5% dextrose solution at pH 8.0(±0.1).
Each animal, at their respective termination time points, was euthanized for QWBA analysis immediately after blood collection. One rat per time point per Group was euthanized as listed below.
The blood samples were maintained on wet ice (approximately 4° C.) and then centrifuged to obtain plasma within 1 h of the blood collection time. Centrifuge settings were recorded in the study notebook. Duplicate aliquots of plasma (0.050 mL) were analyzed for radioactivity using direct counting by LSC, and residual plasma was stored at approximately −70° C. and was saved for possible future analysis under a separate study protocol. Residual red blood cells were discarded as radioactive waste.
The pinna, distal limbs, hair, and tail were removed from each frozen carcass and each frozen carcass was embedded in an aqueous suspension of approximately 2% (w/v) carboxymethylcellulose and frozen into a block. The blocks were stored at approximately −20° C. prior to sectioning. Each blocked carcass was mounted on the object stage of a cryomicrotome (Leica CM3600 Cryomacrocut, Nussloch, Germany and Vibratome 9800, St. Louis, Mo.) maintained at approximately −20° C. and internal standards (3), which were plasma fortified with [^14C]-glucose at one concentration (approximately 0.05 μCi/mL), were placed into the frozen blocks, prior to sectioning, and were used for section thickness quality control. A number of whole-body sections (approximately 40 μm thick) were taken in the sagittal plane at various levels of interest using a whole-body cryomicrotome set at −20° C. Sagittal sections (20-50 μm thick) of frozen carcasses were exposed to phosphor imaging plates. Regions of images in tissues were converted to concentrations using standards. All of the major tissues, organs, and biological fluids were represented.
Tissue concentration data was determined for the following tissues and/or contents: adipose (brown and white), adrenal gland, bile (in duct), blood (cardiac), bone, bone marrow, brain (cerebrum, cerebellum, medulla), cecum (and contents), large intestine (and contents), epididymis, esophagus, eye (uvea and lens), Harderian gland, heart, kidney (cortex and medulla), liver, lung, lymph node, pancreas, pituitary gland, prostate gland, salivary gland, seminal vesicles, skeletal muscle, skin (pigmented and non-pigmented), small intestine (and contents), stomach (gastric mucosa and contents), spleen, spinal cord, testis, thymus, thyroid, and urinary bladder (and contents).
The imaging plate and sections were placed in light-tight exposure cassettes, in a copper-lined lead safe, for a 4-day exposure at room temperature. […] Quantification was performed by image densitometry using MCD image analysis software (v. 7.0, Interfocus Imaging Ltd) and a standard curve constructed from the integrated response [i.e., Molecular Dynamics Counts per square millimeter (MDC/mm^2)] and the nominal concentrations of the ^14C-calibration standards. The concentrations of radioactivity were expressed as the μg equivalents of [^14C]brincidofovir per gram sample (μg equiv/g). A lower limit of quantification (LLOQ) was applied to the data (See section 6.7.4).
Tissue concentrations that fell below the LLOQ were identified as being below the quantification limit (BQL). Tissue areas that were not visualized on autoradiographic images were identified as no sample (NS) and reported as BQL.

CCCCCCCCCCCCCCCCOCCCOP(=O)(O)CO[C@H](CO)Cn1ccc(N)nc1=O [[^14C] brincidofovir]
Tissue Concentration (168 h) (Skin (non-pigmented), 2 h IV infusion 15 mg/kg, Group 4, LLOQ 0.036): 0.226 μg equiv/g
Tissue Concentration (168 h) (Skin (non-pigmented), PO 15 mg/kg, Group 7, LLOQ 0.034): BQL
AUCall (Skin (non-pigmented), PO 15 mg/kg, Group 7): 14.0275 μg equiv · h/g
AUCall Ratio (PO/IV) (Skin (pigmented), 15 mg/kg): 0.18
Cmax Ratio (PO/IV) (Skin (pigmented), 15 mg/kg): 0.15
AUCall (Skin (pigmented), 2 h IV infusion 15 mg/kg, Group 4): 95.5050 μg equiv · h/g
Tissue Concentration (168 h) (Skin (pigmented), 2 h IV infusion 15 mg/kg, Group 4, LLOQ 0.036): 0.09 μg equiv/g
Tissue Concentration (168 h) (Skin (pigmented), PO 15 mg/kg, Group 7, LLOQ 0.034): BQL
AUCall (Skin (pigmented), PO 15 mg/kg, Group 7): 17.0405 μg equiv · h/g
AUCall Ratio (PO/IV) (Small Intestine, 15 mg/kg): 8.25
Cmax Ratio (PO/IV) (Small Intestine, 15 mg/kg): 6.45
AUCall (Small Intestine, 2 h IV infusion 15 mg/kg, Group 4): 1160.650 μg equiv · h/g
Tissue Concentration (168 h) (Small Intestine, 2 h IV infusion 15 mg/kg, Group 4, LLOQ 0.036): 0.339 μg equiv/g
Tissue Concentration (168 h) (Small Intestine, PO 15 mg/kg, Group 7, LLOQ 0.034): 5.867 μg equiv/g
AUCall (Small Intestine, PO 15 mg/kg, Group 7, 15 mg/kg): 9575.18 μg equiv · h/g
AUCall Ratio (PO/IV) (Spinal Cord, 15 mg/kg): 0.02
Cmax Ratio (PO/IV) (Spinal Cord, 15 mg/kg): 0.04
AUCall (Spinal Cord, 2 h IV infusion 15 mg/kg, Group 4): 5.7830 μg equiv · h/g
Tissue Concentration (168 h) (Spinal Cord, 2 h IV infusion 15 mg/kg, Group 4, LLOQ 0.036): BQL
Tissue Concentration (168 h) (Spinal Cord, PO 15 mg/kg, Group 7, LLOQ 0.034): BQL
AUCall (Spinal Cord, PO 15 mg/kg, Group 7): 0.1110 μg equiv · h/g
AUCall Ratio (PO/IV) (Spleen, 15 mg/kg): 0.27
Cmax Ratio (PO/IV) (Spleen, 15 mg/kg): 0.18
AUCall (Spleen, 2 h IV infusion 15 mg/kg, Group 4): 642.3590 μg equiv · h/g
Tissue Concentration (168 h) (Spleen, 2 h IV infusion 15 mg/kg, Group 4, LLOQ 0.036): 0.892 μg equiv/g
Tissue Concentration (168 h) (Spleen, PO 15 mg/kg, Group 7, LLOQ 0.034): 0.274 μg equiv/g
AUCall (Spleen, PO 15 mg/kg, Group 7): 172.2208 μg equiv · h/g
AUCall Ratio (PO/IV) (Stomach (mucosa), 15 mg/kg): 1.29
Cmax Ratio (PO/IV) (Stomach (mucosa), 15 mg/kg): 4.75
AUCall (Stomach (mucosa), 2 h IV infusion 15 mg/kg, Group 4): 70.2310 μg equiv · h/g
Tissue Concentration (168 h) (Stomach (mucosa), 2 h IV infusion 15 mg/kg, Group 4, LLOQ 0.036): 0.069 μg equiv/g
Tissue Concentration (168 h) (Stomach (mucosa), PO 15 mg/kg, Group 7, LLOQ 0.034): 0.042 μg equiv/g
AUCall (Stomach (mucosa), PO 15 mg/kg, Group 7): 90.7575 μg equiv · h/g
AUCall Ratio (PO/IV) (Testis, 15 mg/kg): 0.39
Cmax Ratio (PO/IV) (Testis, 15 mg/kg): 0.17
AUCall (Testis, 2 h IV infusion 15 mg/kg, Group 4): 77.2835 μg equiv · h/g
Tissue Concentration (168 h) (Testis, 2 h IV infusion 15 mg/kg, Group 4, LLOQ 0.036): 0.098 μg equiv/g
Tissue Concentration (168 h) (Testis, PO 15 mg/kg, Group 7, LLOQ 0.034): 0.041 μg equiv/g
AUCall (Testis, PO 15 mg/kg, Group 7): 30.3920 μg equiv · h/g
AUCall Ratio (PO/IV) (Thymus, 15 mg/kg): 0.13
Cmax Ratio (PO/IV) (Thymus, 15 mg/kg): 0.11
AUCall (Thymus, 2 h IV infusion 15 mg/kg, Group 4): 92.4355 μg equiv · h/g
Tissue Concentration (168 h) (Thymus, 2 h IV infusion 15 mg/kg, Group 4, LLOQ 0.036): 0.1 μg equiv/g
Tissue Concentration (168 h) (Thymus, PO 15 mg/kg, Group 7, LLOQ 0.034): BQL
AUCall (Thymus, PO 15 mg/kg, Group 7): 12.0843 μg equiv · h/g
AUCall Ratio (PO/IV) (Thyroid, 15 mg/kg): 0.13
Cmax Ratio (PO/IV) (Thyroid, 15 mg/kg): 0.13
AUCall (Thyroid, 2 h IV infusion 15 mg/kg, Group 4): 238.0230 μg equiv · h/g
Tissue Concentration (168 h) (Thyroid, 2 h IV infusion 15 mg/kg, Group 4, LLOQ 0.036): 0.459 μg equiv/g
Tissue Concentration (168 h) (Thyroid, PO 15 mg/kg, Group 7, LLOQ 0.034): 0.038 μg equiv/g
AUCall (Thyroid, PO 15 mg/kg, Group 7): 31.3395 μg equiv · h/g
AUCall Ratio (PO/IV) (Urinary Bladder, 15 mg/kg): 0.52
Cmax Ratio (PO/IV) (Urinary Bladder, 15 mg/kg): 0.16
AUCall (Urinary Bladder, 2 h IV infusion 15 mg/kg, Group 4): 215.5480 μg equiv · h/g
Tissue Concentration (168 h) (Urinary Bladder, 2 h IV infusion 15 mg/kg, Group 4, LLOQ 0.036): BQL
Tissue Concentration (168 h) (Urinary Bladder, PO 15 mg/kg, Group 7, LLOQ 0.034): 0.076 μg equiv/g
AUCall (Urinary Bladder, PO 15 mg/kg, Group 7): 111.2445 μg equiv · h/g

From patent US20170368082A1, “FORMULATIONS OF BRINCIDOFOVIR” (priority 2016, published 2017)
